# From patent publication US20260305610A1, “TRIAZOLE COMPOUND, AND PREPARATION METHOD THEREFOR, HERBICIDAL COMPOSITION AND USE THEREOF” (QINGDAO KINGAGROOT CHEMICAL COMPOUND CO., LTD., priority 2023, published 2026)
# Legend:
# Type in all cases: in vivo
# weeds = assay: Activity assay of compositions: soil sealing treatment (S), fresh weight inhibition and combined effect (Gowing method); details: Silene conoidea, 21 d
# Method: The required active ingredient B was purchased from a reagent company or a technical material manufacturer or synthesized by a conventional method. The technical materials were all dissolved with acetone solvents and diluted with aqueous solution of 0.1% Tween-80 emulsifier, which should be used immediately after dilution.
# • Weeds were cultivated in a controllable sunlight greenhouse at 20 to 30° C., in natural light, and with relative humidity of 57% to 72%. […] The test soil was quantitatively filled to ¾ of the pot, and then watered from the bottom of the pot to completely wet the soil to saturation. The test weed seeds were accelerated to just germinate, and then evenly and quantitatively broadcasted on the soil surface, covered with 0.5-1 cm soil according to the sizes of the seeds, and ready for use 72 hours after sowing.
# Each treatment was repeated 4 times. Four pots with 20 weed seeds sowed per pot were treated each time.
# The well-sowed test materials were evenly placed on a platform with an area of 0.5 m^2, and foliage spraying was carried out by the 3WP-2000-type walking spray tower at a dosage of 450 kg/ha and a spray pressure of 0.3 MPa. After all the solution was sprayed, the air valve was closed. And 30 seconds later, the door of the spray tower was opened, and the nutritional bowl was taken out. Next, the air valve was opened, and the spray tube was cleaned by spraying 50 ml of water.
# A method for investigating absolute numbers was employed. Whole seedlings of survival weeds were cut off along the soil surface with a blade, and the fresh weight of the weeds was weighed using an analytical balance. For dead weeds, the fresh weight thereof was zero.
# The investigation was performed 21 days after the treatment for once in total.
# The theoretical fresh weight inhibition rate of a mixed combination of each treatment was calculated by the Gowing method (E0=X+Y−X*Y/100). Then compared with the measured inhibition rate (E), the type of the combined effect of the combination of the two on weeds was evaluated, which was a synergistic effect when E−E0>10%; an antagonistic effect when E−E0<−10%; an additional effect when −10%≤E−E0≤10%. An optimal ratio was determined according to factors such as the actual control effects, characteristics of herbicides, balance of the formulation, etc. In the formula, X represents the fresh weight inhibition rate of the active ingredient A in a dosage of P; Y represents the fresh weight inhibition rate of the active ingredient B in a dosage of Q. The statistical results are shown in Table 4.
# Leptochloa chinensis = assay: Pre-emergence sealing experiment for water-seeding; design: key: 9: completely dead; 8: growth control rate is greater than or equal to 90% and less than 100%; 7: growth control rate is greater than or equal to 80% and less than 90%; 6: growth control rate is greater than or equal to 70% and less than 80%; growth control rate is greater than or equal to 50% and less than 70%; 4: growth control rate is greater than or equal to 30% and less than 50%; growth control rate is greater than or equal to 20% and less than 30%; growth control rate is greater than or equal to 10% and less than 20%; growth control rate is less than 10%; 0: no effect; details: 15 days
# Excerpt: (§1) The activity level criteria for plant damage (i.e., growth control rate) are as follows: • Level 9: completely dead; • Level 8: growth control rate is greater than or equal to 90% and less than 100%; • Level 7: growth control rate is greater than or equal to 80% and less than 90%; • Level 6: growth control rate is greater than or equal to 70% and less than 80%; • Level 5: growth control rate is greater than or equal to 50% and less than 70%; • Level 4: growth control rate is greater than or equal to 30% and less than 50%; • Level 3: growth control rate is greater than or equal to 20% and less than 30%; • Level 2: growth control rate is greater than or equal to 10% and less than 20%; • Level 1: growth control rate is less than 10%; • Level 0: no effect.
# (§2) The seeds of Leptochloa chinensis, Digitaria sanguinalis, Monochoria vaginalis (sulfonylurea-resistant strain, collected from Hunan, China), Cyperus iria (sulfonylurea-resistant strain, collected from Jiangsu, China), Huaidao (rice cultivar), etc. were broadcasted on the surface of nutrition bowls filled with soil and fully covered by soil. The prepared nutrition bowls were then placed in a cultivation box, with water filled to a suitable height to keep the soil in the nutrition bowls moist. The test compounds of the present invention were individually dissolved with mixed solutions of acetone and Tween-80, then diluted into solution of a certain concentration using a certain amount of water and sprayed using a spray tower. The plants were placed on a greenhouse seedbed and cultured for 15 days, and the experimental results were then collected. The compounds were applied at 120, 60, 30 and 15 g a.i./ha in triplicate and the results were averaged. The effects were evaluated according to the above activity level criteria.
# Monochoria vaginalis = assay: Pre-emergence sealing experiment for water-seeding; design: key: 9: completely dead; 8: growth control rate is greater than or equal to 90% and less than 100%; 7: growth control rate is greater than or equal to 80% and less than 90%; 6: growth control rate is greater than or equal to 70% and less than 80%; growth control rate is greater than or equal to 50% and less than 70%; 4: growth control rate is greater than or equal to 30% and less than 50%; growth control rate is greater than or equal to 20% and less than 30%; growth control rate is greater than or equal to 10% and less than 20%; growth control rate is less than 10%; 0: no effect; details: 15 days, sulfonylurea-resistant strain
# Excerpt: as §1, §2
# Cyperus iria = assay: Pre-emergence sealing experiment for water-seeding; design: key: 9: completely dead; 8: growth control rate is greater than or equal to 90% and less than 100%; 7: growth control rate is greater than or equal to 80% and less than 90%; 6: growth control rate is greater than or equal to 70% and less than 80%; growth control rate is greater than or equal to 50% and less than 70%; 4: growth control rate is greater than or equal to 30% and less than 50%; growth control rate is greater than or equal to 20% and less than 30%; growth control rate is greater than or equal to 10% and less than 20%; growth control rate is less than 10%; 0: no effect; details: 15 days, sulfonylurea-resistant strain
# Excerpt: as §1, §2
# Digitaria sanguinalis = assay: Pre-emergence sealing experiment for water-seeding; design: key: 9: completely dead; 8: growth control rate is greater than or equal to 90% and less than 100%; 7: growth control rate is greater than or equal to 80% and less than 90%; 6: growth control rate is greater than or equal to 70% and less than 80%; growth control rate is greater than or equal to 50% and less than 70%; 4: growth control rate is greater than or equal to 30% and less than 50%; growth control rate is greater than or equal to 20% and less than 30%; growth control rate is greater than or equal to 10% and less than 20%; growth control rate is less than 10%; 0: no effect; details: 15 days
# Excerpt: as §1, §2
# [1] = test system: Echinochloa crusgalli, Schoenoplectiella juncoides and Bidens tripartita; assay: Resistance of collected weed seeds to pyrazosulfuron-ethyl; details: conventional doses; seeds collected from Heilongjiang, China
# [2] = test system: monocotyledonous and dicotyledonous weeds; assay: Pre-emergence test experiment (weeds); design: key: 9: completely dead; 8: growth control rate is greater than or equal to 90% and less than 100%; 7: growth control rate is greater than or equal to 80% and less than 90%; 6: growth control rate is greater than or equal to 70% and less than 80%; growth control rate is greater than or equal to 50% and less than 70%; 4: growth control rate is greater than or equal to 30% and less than 50%; growth control rate is greater than or equal to 20% and less than 30%; growth control rate is greater than or equal to 10% and less than 20%; growth control rate is less than 10%; 0: no effect; details: 15 g a.i./ha
# major crops = assay: Pre-emergence test experiment (crops); design: key: 9: completely dead; 8: growth control rate is greater than or equal to 90% and less than 100%; 7: growth control rate is greater than or equal to 80% and less than 90%; 6: growth control rate is greater than or equal to 70% and less than 80%; growth control rate is greater than or equal to 50% and less than 70%; 4: growth control rate is greater than or equal to 30% and less than 50%; growth control rate is greater than or equal to 20% and less than 30%; growth control rate is greater than or equal to 10% and less than 20%; growth control rate is less than 10%; 0: no effect; details: 15 g a.i./ha
Compound,Control effect of B applied alone in a corresponding dose (%) (weeds; B 15 g a.i./ha),Control effect of B applied alone in a corresponding dose (%) (weeds; B 30 g a.i./ha),"activity level (growth control rate, fresh weight), Leptochloa chinensis (Leptochloa chinensis; 30 g a.i./ha)","activity level (growth control rate, fresh weight), Monochoria vaginalis (Monochoria vaginalis; 30 g a.i./ha)","activity level (growth control rate, fresh weight), Cyperus iria (Cyperus iria; 30 g a.i./ha)","activity level (growth control rate, fresh weight), Digitaria sanguinalis (Digitaria sanguinalis; 30 g a.i./ha)",resistance of collected weed seeds [1],Pre-emergence activity level (growth control rate) on Amaranthus retroflexus ([2]; Amaranthus retroflexus),Pre-emergence activity level (growth control rate) on Descurainia sophia ([2]; Descurainia sophia),Pre-emergence activity level (growth control rate) on Digitaria sanguinalis ([2]; Digitaria sanguinalis),Pre-emergence activity level (growth control rate) on Setaria viridis ([2]; Setaria viridis),Pre-emergence activity level (growth control rate) on Solanum nigrum ([2]; Solanum nigrum),Pre-emergence activity level (growth control rate) on Veronica ([2]; Veronica),Pre-emergence plant damage level (growth control rate) on Corn (major crops; Corn),Pre-emergence plant damage level (growth control rate) on Cotton (major crops; Cotton),Pre-emergence plant damage level (growth control rate) on Soybean (major crops; Soybean),"activity level (growth control rate, fresh weight), Leptochloa chinensis (Leptochloa chinensis; 15 g a.i./ha)","activity level (growth control rate, fresh weight), Monochoria vaginalis (Monochoria vaginalis; 15 g a.i./ha)","activity level (growth control rate, fresh weight), Cyperus iria (Cyperus iria; 15 g a.i./ha)","activity level (growth control rate, fresh weight), Digitaria sanguinalis (Digitaria sanguinalis; 15 g a.i./ha)"
"COC(=O)c1ccccc1CS(=O)(=O)NC(=O)Nc1nc(OC)cc(OC)n1 [Bensulfuron-methyl, bensulfuron-methyl, reference compound]",43.7%,60.5%,3 (growth control rate is greater than or equal to 20% and less than 30%),2 (growth control rate is greater than or equal to 10% and less than 20%),5 (growth control rate is greater than or equal to 50% and less than 70%),4 (growth control rate is greater than or equal to 30% and less than 50%),–,–,–,–,–,–,–,–,–,–,–,–,–,–
"CCOC(=O)c1cnn(C)c1S(=O)(=O)NC(=O)Nc1nc(OC)cc(OC)n1 [pyrazosulfuron-ethyl, reference compound]",50.4%,65.6%,–,–,–,–,resistant to conventional doses,–,–,–,–,–,–,–,–,–,–,–,–,–
CCc1ccc(-n2cnc(C(F)(F)F)n2)nc1Oc1cccc(C(F)(F)F)c1 [Compound 16],–,–,–,–,–,–,–,9,9,9,9,9,9,0,0,0,9,9,9,9
